# From patent US8765941B2 (Kino Pharma, Inc., priority 2008, dated 2014)
# Like-named read-outs stand apart in the source and are kept apart here.
# Columns and labels:
# [1] = test system: HCV-NS5A protein; assay: HCV protein expression-suppressing activity by Western blotting in LuHCV cells; assay type: cell-based, hepatitis C virus (HCV); conditions: 20 μM, 14 hours and 60 hours
# Experimental: LuHCV cells were plated onto 10-cm dishes at 1×10^6 cells/dish and then incubated overnight or longer. Subsequently, Compound 5 dissolved in DMSO was added at a final concentration of 20 μM. Cells were further gently cultured under culture conditions of 37° C. and 5% CO2. DMSO alone was added to a control dish. At 14 hours and 60 hours after addition of Compound 5, cells were collected. Cells were lysed using a cell lysis solution (25 mM NaPO4 (pH 7.5), 150 mM NaCl, 1% Triton X-100, 1 mM EDTA, 20% glycerol, and protease inhibitor cocktail (Roche Diagnostics)), so that cell extracts were obtained. With the use of the thus obtained cell extracts (10 μg each), expression analysis was performed by Western blotting for an HCV-NS5A protein (an antibody was purchased from Virogen) and β-actin (an antibody was purchased from Sigma).
# [2] = test system: HCV RNA (NS5A); assay: Effects on replication and stability of HCV RNA (RT-PCR) in LuHCV cells; assay type: cell-based, hepatitis C virus (HCV); conditions: 20 μM, 14 hours and 60 hours
# Experimental: LuHCV cells were plated onto 10-cm dishes at 1×10^6 cells/dish and then incubated overnight or longer. Subsequently, Compound 5 dissolved in DMSO was added at a final concentration of 20 μM. Cells were further gently cultured under culture conditions of 37° C. and 5% CO2. DMSO alone was added to a control dish. At 14 hours and 60 hours after addition of Compound 5, cells were collected and then total RNA was extracted using Sepasol-RNA (NACALAI TESQUE, INC.). cDNA was synthesized using SuperScript II reverse transcriptase (Invitrogen) and oligo-dTprimer (Promega) or random primers (Invitrogen Corporation). PCR was performed using the thus synthesized cDNA as a template, NS5A-specific primers (5′-[…]-3′ (SEQ ID NO: 1) and 5′-[…]-3′ (SEQ ID NO: 2)), GAPDH primers (5′-[…]-3′ (SEQ ID NO: 3) and 5′-[…]-3′ (SEQ ID NO: 4)), and PrimeSTAR HS DNA polymerase (Takara Bio Inc.). After DNA amplification reaction, agarose gel electrophoresis and ethidium bromide staining were performed. The expression level of each gene was evaluated using a UV transilluminator.
# [3] = test system: LuHCV cells; assay: Effects on the growth of LuHCV cells (hemocytometer count); assay type: cell-based, human; conditions: 20 μM, 0, 6, 12, 24, 36 and 48 hours
# Experimental: LuHCV cells were plated onto a 6-well plate at 5×10^4 cells/1 mL/well and then incubated overnight. […] The final concentration of Compound 5 was 20 μM. […] After addition of Compound 5, cells were collected from 3 wells at 0, 6, 12, 24, 36, and 48 hours later, the number of viable cells per well was measured using a hemocytometer, and then the average value was calculated. Wells to which only DMSO had been added were used as control wells.
# [4] = Toxicity test by repeated in vivo administration; design: species or system mice (Cr1j/CD1 (ICR) mice, male); conditions: oral
# Experimental: A conditioning period of one week (day-7 to day-1) was provided for mice (Cr1j/CD1 (ICR) mice, male, 5-week-old), and then the mice were grouped based on the mean body weight on the day before the initiation of the test. Also, the dose of Compound 5 was calculated based on the mean body weight (day-1). There were 2 groups to which Compound 5 was administered: a placebo-administered group (n=6) to which a placebo was administered and a Compound 5-administered group (n=6) to which Compound 5 was administered. On the days of administration (day 00 to day 07), the test compound formulated using 0.5% carboxymethyl cellulose was administered via oral administration for 7 days in a row. Symptoms were observed during the administration period.
# During the test period, the body weight of each mouse was weighed on day −7, day −3, day −1, day 4, and day 7.
# [5] = test system: influenza virus
# [6] = test system: intracellular HCV protein (NS3-NS4-NS5A-NS5B); assay: HCV viral protein expression assay using LuHCV cells (luciferase activity); conditions: 48 hours, LuHCV cells
# Experimental: As an HCV viral protein expression assay, screening was performed for compounds having anti-HCV activity using human hepatocytes with which the replication and expression of the intracellular HCV protein (NS3-NS4-NS5A-NS5B) can be evaluated through determination of luciferase activity (hereinafter, referred to as LuHCV).
# LuHCV cells were plated onto 96-well plates at 5×10^3 cells/50 μL/well and then incubated overnight. Test compounds were each dissolved in dimethyl sulfoxide (DMSO) and dilution series were prepared using DMSO, if necessary. On the next day of plating of LuHCV cells, a medium containing a test compound with a concentration twice the final test concentration was added at 50 μL/well. Cells were gently cultured under culture conditions of 48 hours, 37° C., and 5% CO2 (the final concentrations of the test compounds: 0, 10, and 20 μM). At this time, analysis was made using 3 test wells for each test compound and for each concentration.
# Culture medium was removed after 48 hours. Glo lysis buffer (100 μL) (Promega) was added to each well and then cells were disrupted, so that a cell extract was obtained. With the use of 50 μL of the thus obtained cell extract, 50 μL of a Bright-Glo™ Luciferase Assay System (Promega) reagent was added. Luciferase activity in the extract was determined by measuring luminescence intensity for one second using a measuring device ARVO (PerkinElmer Co., Ltd.).
# Based on the thus obtained numerical values of luminescence intensity, an average value for each test compound at each concentration was calculated. The luminescence intensity percentage for each test compound was calculated based on a luminescence intensity for DMSO (used as a control for test substances) as 100%.
# Culture medium was removed after 48 hours. Glo Lysis buffer (100 μL) (Promega) was added to each well and then cells were disrupted, so that a cell extract was obtained. With the use of 50 μL of the thus obtained cell extract, 50 μL of a Bright-Glo™ Luciferase Assay System (Promega) reagent was added. Luciferase activity in the extract was determined by measuring luminescence intensity for one second using a measuring device ARVO (PerkinElmer Co., Ltd.).
# Based on the thus obtained numerical values of luminescence intensity, an average value for each test compound at each concentration was calculated. The luminescence intensity percentage for each test compound was calculated based on a luminescence intensity of DMSO (used as a control for test substances) as 100%.
smiles,measurement,setting,value
"O=C(NC(=S)Nc1cc(C(F)(F)F)ccc1N1CCCCCCC1)c1cccnc1 [Compound 5, N-nicotinoyl-N′-[2-(azacyclooctan-1-yl)-5-(trifluoromethyl)phenyl]thiourea]",expression level of NS5A (Western blotting),[1],a decrease in the expression level of NS5A was observed
same,expression level of β-actin (Western blotting),[1],no change was observed
same,amount of NS5A and GAPDH RNA (RT-PCR),[2],no quantitative change was observed
same,number of viable cells at each time point versus DMSO control,[3],Almost no differences were observed
same,dead mice during the administration period,"[4]; 1000 mg/kg/day, 7 days",no dead mice were observed
same,level at which no adverse effect is observed,"[4]; 7 days repeated administration, mice",≥ 1000 mg/kg
same,viability (% control),[5]; 5 µM,41.8 ± 2.2 % control
same,viability (% control),[5]; 10 µM,63.1 ± 0.9 % control
same,cell death due to influenza virus infection (result in words),"[5]; 5 and 10 μM, 48 hours, MDCK cells",cell death was decreased
same,luciferase activity (result in words),"[6]; 0, 10 and 20 μM",Decreases in luciferase activity
same,decrease in luminescence intensity compared with the control,[6]; 10 μM,about 50%
